For four compounds, IC50 and viability, T/C results are on record in PubChem BioAssay AID2060497 (Molecular Pharmacology Branch, DTP, NCI, 2025).

A value given as a limit tells only on which side of the number the result lay.
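Note: spheroids exposed to compounds for one week before readout.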
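Throughout, for viability, T/C: percent viability relative to DMSO vehicle wells taken as 100%.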

One test concerns 317291-083-R-J1-PDC complex spheroids, viability. Put plainly: Anticancer human tumor 317291-083-R-J1-PDC patient-derived soft tissue sarcoma cell line growth inhibition [GQUAD]. To be noted: curve of first compound; second compound 0.0316 µM. The method in brief:
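Tumor cells were grown as complex spheroids with HUVEC endothelial cells and mesenchymal stem cells as stroma. G-quadruplex stabilizers were combined with targeted agents over half-log dilutions from near the clinical Cmax, or from 10 microM.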
For orientation: IC50 means the concentration that gives 50% inhibition. Turning to `CC1COCCN1c1cc(C2(O)CC3CCC(C2)O3)c2cnn(-c3ccn[nH]3)c2n1` (configuration not stated) + CN(C)c1ccc(Nc2c3ccc(NC(=O)CCN4CCCC4)cc3nc3cc(NC(=O)CCN4CCCC4)ccc23)cc1, the IC50 turned out to be 37.1 nM.
Same read-out and setting: the result for `COc1cccc2c1C(=O)c1c(O)c3c(c(O)c1C2=O)CC(O)(C(=O)CO)CC3OC1CC(N)C(O)C(C)O1` (configuration not stated) + Cc1cnc(CNC(=O)c2c(=O)c3ccc(N4CCCN(C)CC4)nc3n3c2sc2ccccc23)cn1 reads 72.5 nM; that for `Nc1ccn(C2OC(CO)C(O)C2(F)F)c(=O)n1` (configuration not stated) + Cc1cnc(CNC(=O)c2c(=O)c3ccc(N4CCCN(C)CC4)nc3n3c2sc2ccccc23)cn1, 34.7 nM; that for `COc1cc(C2c3cc4c(cc3C(OC3OC5COC(C)OC5C(O)C3O)C3COC(=O)C23)OCO4)cc(OC)c1O` (configuration not stated) + CN(C)c1ccc(Nc2c3ccc(NC(=O)CCN4CCCC4)cc3nc3cc(NC(=O)CCN4CCCC4)ccc23)cc1, 310 nM.

Still in this test, the particulars now being: curve of first compound; second compound 0.1 µM.
Take `CC1COCCN1c1cc(C2(O)CC3CCC(C2)O3)c2cnn(-c3ccn[nH]3)c2n1` (configuration not stated) + CN(C)c1ccc(Nc2c3ccc(NC(=O)CCN4CCCC4)cc3nc3cc(NC(=O)CCN4CCCC4)ccc23)cc1: the IC50 was less than 31.6 nM.
Same read-out and setting: the result for `COc1cccc2c1C(=O)c1c(O)c3c(c(O)c1C2=O)CC(O)(C(=O)CO)CC3OC1CC(N)C(O)C(C)O1` (configuration not stated) + Cc1cnc(CNC(=O)c2c(=O)c3ccc(N4CCCN(C)CC4)nc3n3c2sc2ccccc23)cn1 reads 47.1 nM; that for `Nc1ccn(C2OC(CO)C(O)C2(F)F)c(=O)n1` (configuration not stated) + Cc1cnc(CNC(=O)c2c(=O)c3ccc(N4CCCN(C)CC4)nc3n3c2sc2ccccc23)cn1, less than 31.6 nM; that for `COc1cc(C2c3cc4c(cc3C(OC3OC5COC(C)OC5C(O)C3O)C3COC(=O)C23)OCO4)cc(OC)c1O` (configuration not stated) + CN(C)c1ccc(Nc2c3ccc(NC(=O)CCN4CCCC4)cc3nc3cc(NC(=O)CCN4CCCC4)ccc23)cc1, 357 nM.

Still in this test, the particulars now being: curve of first compound; second compound 0.316 µM.
As for `CC1COCCN1c1cc(C2(O)CC3CCC(C2)O3)c2cnn(-c3ccn[nH]3)c2n1` (configuration not stated) + CN(C)c1ccc(Nc2c3ccc(NC(=O)CCN4CCCC4)cc3nc3cc(NC(=O)CCN4CCCC4)ccc23)cc1, the IC50 was less than 31.6 nM.
The same measure, in the same setting: the result for `COc1cccc2c1C(=O)c1c(O)c3c(c(O)c1C2=O)CC(O)(C(=O)CO)CC3OC1CC(N)C(O)C(C)O1` (configuration not stated) + Cc1cnc(CNC(=O)c2c(=O)c3ccc(N4CCCN(C)CC4)nc3n3c2sc2ccccc23)cn1 reads less than 31.6 nM; that for `Nc1ccn(C2OC(CO)C(O)C2(F)F)c(=O)n1` (configuration not stated) + Cc1cnc(CNC(=O)c2c(=O)c3ccc(N4CCCN(C)CC4)nc3n3c2sc2ccccc23)cn1, less than 31.6 nM; that for `COc1cc(C2c3cc4c(cc3C(OC3OC5COC(C)OC5C(O)C3O)C3COC(=O)C23)OCO4)cc(OC)c1O` (configuration not stated) + CN(C)c1ccc(Nc2c3ccc(NC(=O)CCN4CCCC4)cc3nc3cc(NC(=O)CCN4CCCC4)ccc23)cc1, 283 nM.

The test is the same for the next values; noted with them: curve of first compound; second compound 1 µM.
As to `CC1COCCN1c1cc(C2(O)CC3CCC(C2)O3)c2cnn(-c3ccn[nH]3)c2n1` (configuration not stated) + CN(C)c1ccc(Nc2c3ccc(NC(=O)CCN4CCCC4)cc3nc3cc(NC(=O)CCN4CCCC4)ccc23)cc1, the IC50 is less than 31.6 nM.
Same read-out and setting: the result for `COc1cccc2c1C(=O)c1c(O)c3c(c(O)c1C2=O)CC(O)(C(=O)CO)CC3OC1CC(N)C(O)C(C)O1` (configuration not stated) + Cc1cnc(CNC(=O)c2c(=O)c3ccc(N4CCCN(C)CC4)nc3n3c2sc2ccccc23)cn1 reads less than 31.6 nM; that for `Nc1ccn(C2OC(CO)C(O)C2(F)F)c(=O)n1` (configuration not stated) + Cc1cnc(CNC(=O)c2c(=O)c3ccc(N4CCCN(C)CC4)nc3n3c2sc2ccccc23)cn1, less than 31.6 nM.
The same measure, in the same setting: the result for `COc1cc(C2c3cc4c(cc3C(OC3OC5COC(C)OC5C(O)C3O)C3COC(=O)C23)OCO4)cc(OC)c1O` (configuration not stated) + CN(C)c1ccc(Nc2c3ccc(NC(=O)CCN4CCCC4)cc3nc3cc(NC(=O)CCN4CCCC4)ccc23)cc1 reads 55.4 nM.

The test is the same for the next values; noted with them: curve of first compound; second compound 3.16 µM.
With `CC1COCCN1c1cc(C2(O)CC3CCC(C2)O3)c2cnn(-c3ccn[nH]3)c2n1` (configuration not stated) + CN(C)c1ccc(Nc2c3ccc(NC(=O)CCN4CCCC4)cc3nc3cc(NC(=O)CCN4CCCC4)ccc23)cc1, the IC50 is less than 31.6 nM.
Still for that read-out and setting: the result for `COc1cccc2c1C(=O)c1c(O)c3c(c(O)c1C2=O)CC(O)(C(=O)CO)CC3OC1CC(N)C(O)C(C)O1` (configuration not stated) + Cc1cnc(CNC(=O)c2c(=O)c3ccc(N4CCCN(C)CC4)nc3n3c2sc2ccccc23)cn1 reads less than 31.6 nM; that for `Nc1ccn(C2OC(CO)C(O)C2(F)F)c(=O)n1` (configuration not stated) + Cc1cnc(CNC(=O)c2c(=O)c3ccc(N4CCCN(C)CC4)nc3n3c2sc2ccccc23)cn1, less than 31.6 nM; that for `COc1cc(C2c3cc4c(cc3C(OC3OC5COC(C)OC5C(O)C3O)C3COC(=O)C23)OCO4)cc(OC)c1O` (configuration not stated) + CN(C)c1ccc(Nc2c3ccc(NC(=O)CCN4CCCC4)cc3nc3cc(NC(=O)CCN4CCCC4)ccc23)cc1, less than 31.6 nM.

Still in this test, the particulars now being: curve of first compound; second compound 10 µM.
With `CC1COCCN1c1cc(C2(O)CC3CCC(C2)O3)c2cnn(-c3ccn[nH]3)c2n1` (configuration not stated) + CN(C)c1ccc(Nc2c3ccc(NC(=O)CCN4CCCC4)cc3nc3cc(NC(=O)CCN4CCCC4)ccc23)cc1, the IC50 was less than 31.6 nM.
For `COc1cccc2c1C(=O)c1c(O)c3c(c(O)c1C2=O)CC(O)(C(=O)CO)CC3OC1CC(N)C(O)C(C)O1` (configuration not stated) + Cc1cnc(CNC(=O)c2c(=O)c3ccc(N4CCCN(C)CC4)nc3n3c2sc2ccccc23)cn1, the half-inhibitory concentration (IC50) is less than 31.6 nM.
The same measure, in the same setting: the result for `Nc1ccn(C2OC(CO)C(O)C2(F)F)c(=O)n1` (configuration not stated) + Cc1cnc(CNC(=O)c2c(=O)c3ccc(N4CCCN(C)CC4)nc3n3c2sc2ccccc23)cn1 reads less than 31.6 nM; that for `COc1cc(C2c3cc4c(cc3C(OC3OC5COC(C)OC5C(O)C3O)C3COC(=O)C23)OCO4)cc(OC)c1O` (configuration not stated) + CN(C)c1ccc(Nc2c3ccc(NC(=O)CCN4CCCC4)cc3nc3cc(NC(=O)CCN4CCCC4)ccc23)cc1, less than 31.6 nM.

The same test, now with this note: second compound 0.0316 µM; first compound 0.0316 µM; stronger effect = lower value.
In general, viability, T/C refers to the ratio of treated to control. With `CC1COCCN1c1cc(C2(O)CC3CCC(C2)O3)c2cnn(-c3ccn[nH]3)c2n1` (configuration not stated) + CN(C)c1ccc(Nc2c3ccc(NC(=O)CCN4CCCC4)cc3nc3cc(NC(=O)CCN4CCCC4)ccc23)cc1, the viability, T/C was 54.7%.
The same measure, in the same setting: the result for `COc1cccc2c1C(=O)c1c(O)c3c(c(O)c1C2=O)CC(O)(C(=O)CO)CC3OC1CC(N)C(O)C(C)O1` (configuration not stated) + Cc1cnc(CNC(=O)c2c(=O)c3ccc(N4CCCN(C)CC4)nc3n3c2sc2ccccc23)cn1 reads 84%; that for `Nc1ccn(C2OC(CO)C(O)C2(F)F)c(=O)n1` (configuration not stated) + Cc1cnc(CNC(=O)c2c(=O)c3ccc(N4CCCN(C)CC4)nc3n3c2sc2ccccc23)cn1, 53.1%.
Same read-out and setting: the result for `COc1cc(C2c3cc4c(cc3C(OC3OC5COC(C)OC5C(O)C3O)C3COC(=O)C23)OCO4)cc(OC)c1O` (configuration not stated) + CN(C)c1ccc(Nc2c3ccc(NC(=O)CCN4CCCC4)cc3nc3cc(NC(=O)CCN4CCCC4)ccc23)cc1 reads 89.9%.

Still in this test, the particulars now being: second compound 0.0316 µM; first compound 0.1 µM; stronger effect = lower value.
Take `CC1COCCN1c1cc(C2(O)CC3CCC(C2)O3)c2cnn(-c3ccn[nH]3)c2n1` (configuration not stated) + CN(C)c1ccc(Nc2c3ccc(NC(=O)CCN4CCCC4)cc3nc3cc(NC(=O)CCN4CCCC4)ccc23)cc1: the viability, T/C is 21.6%.
Regarding `COc1cccc2c1C(=O)c1c(O)c3c(c(O)c1C2=O)CC(O)(C(=O)CO)CC3OC1CC(N)C(O)C(C)O1` (configuration not stated) + Cc1cnc(CNC(=O)c2c(=O)c3ccc(N4CCCN(C)CC4)nc3n3c2sc2ccccc23)cn1, the viability, T/C was 34%.
On the same count and under the same terms, the result for `Nc1ccn(C2OC(CO)C(O)C2(F)F)c(=O)n1` (configuration not stated) + Cc1cnc(CNC(=O)c2c(=O)c3ccc(N4CCCN(C)CC4)nc3n3c2sc2ccccc23)cn1 reads 20.4%; that for `COc1cc(C2c3cc4c(cc3C(OC3OC5COC(C)OC5C(O)C3O)C3COC(=O)C23)OCO4)cc(OC)c1O` (configuration not stated) + CN(C)c1ccc(Nc2c3ccc(NC(=O)CCN4CCCC4)cc3nc3cc(NC(=O)CCN4CCCC4)ccc23)cc1, 82.2%.

The test is the same for the next values; noted with them: second compound 0.0316 µM; first compound 0.316 µM; stronger effect = lower value.
`CC1COCCN1c1cc(C2(O)CC3CCC(C2)O3)c2cnn(-c3ccn[nH]3)c2n1` (configuration not stated) + CN(C)c1ccc(Nc2c3ccc(NC(=O)CCN4CCCC4)cc3nc3cc(NC(=O)CCN4CCCC4)ccc23)cc1: the viability, T/C was 16.4%.
On the same count and under the same terms, the result for `COc1cccc2c1C(=O)c1c(O)c3c(c(O)c1C2=O)CC(O)(C(=O)CO)CC3OC1CC(N)C(O)C(C)O1` (configuration not stated) + Cc1cnc(CNC(=O)c2c(=O)c3ccc(N4CCCN(C)CC4)nc3n3c2sc2ccccc23)cn1 reads 21.1%; that for `Nc1ccn(C2OC(CO)C(O)C2(F)F)c(=O)n1` (configuration not stated) + Cc1cnc(CNC(=O)c2c(=O)c3ccc(N4CCCN(C)CC4)nc3n3c2sc2ccccc23)cn1, 17.6%.
Turning to `COc1cc(C2c3cc4c(cc3C(OC3OC5COC(C)OC5C(O)C3O)C3COC(=O)C23)OCO4)cc(OC)c1O` (configuration not stated) + CN(C)c1ccc(Nc2c3ccc(NC(=O)CCN4CCCC4)cc3nc3cc(NC(=O)CCN4CCCC4)ccc23)cc1, the viability, T/C was 48.9%.

The same test, now with this note: second compound 0.0316 µM; first compound 1 µM; stronger effect = lower value.
Consider `CC1COCCN1c1cc(C2(O)CC3CCC(C2)O3)c2cnn(-c3ccn[nH]3)c2n1` (configuration not stated) + CN(C)c1ccc(Nc2c3ccc(NC(=O)CCN4CCCC4)cc3nc3cc(NC(=O)CCN4CCCC4)ccc23)cc1, for which the viability, T/C was 16.2%.
For `COc1cccc2c1C(=O)c1c(O)c3c(c(O)c1C2=O)CC(O)(C(=O)CO)CC3OC1CC(N)C(O)C(C)O1` (configuration not stated) + Cc1cnc(CNC(=O)c2c(=O)c3ccc(N4CCCN(C)CC4)nc3n3c2sc2ccccc23)cn1, the viability, T/C was 10.7%.
Take `Nc1ccn(C2OC(CO)C(O)C2(F)F)c(=O)n1` (configuration not stated) + Cc1cnc(CNC(=O)c2c(=O)c3ccc(N4CCCN(C)CC4)nc3n3c2sc2ccccc23)cn1: the viability, T/C is 11.2%.
For the compound `COc1cc(C2c3cc4c(cc3C(OC3OC5COC(C)OC5C(O)C3O)C3COC(=O)C23)OCO4)cc(OC)c1O` (configuration not stated) + CN(C)c1ccc(Nc2c3ccc(NC(=O)CCN4CCCC4)cc3nc3cc(NC(=O)CCN4CCCC4)ccc23)cc1, the viability, T/C is 26.8%.

The test is the same for the next values; noted with them: second compound 0.0316 µM; first compound 3.16 µM; stronger effect = lower value.
Take `CC1COCCN1c1cc(C2(O)CC3CCC(C2)O3)c2cnn(-c3ccn[nH]3)c2n1` (configuration not stated) + CN(C)c1ccc(Nc2c3ccc(NC(=O)CCN4CCCC4)cc3nc3cc(NC(=O)CCN4CCCC4)ccc23)cc1: the viability, T/C is 12.9%.
On the same count and under the same terms, the result for `COc1cccc2c1C(=O)c1c(O)c3c(c(O)c1C2=O)CC(O)(C(=O)CO)CC3OC1CC(N)C(O)C(C)O1` (configuration not stated) + Cc1cnc(CNC(=O)c2c(=O)c3ccc(N4CCCN(C)CC4)nc3n3c2sc2ccccc23)cn1 reads 1.84%.
